# Assay results taken from PubChem BioAssay (NCI).
#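 Following 48 hours of exposure in 96-well plates, responses at five concentrations were used to interpolate endpoints linearly. The concentration for 50% growth inhibition is given as GI50. Definition used: TGI = concentration required for complete inhibition of growth.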
# Key:
# Test in all cases: inhibition of tumour cell growth, NCI panel, 48 h
# 786-0 renal = test system: 786-0 renal
# A498 renal = test system: A498 renal
# A549 NSCLC = test system: A549 NSCLC
# ACHN renal = test system: ACHN renal
# BT-549 breast = test system: BT-549 breast
# CAKI-1 renal = test system: CAKI-1 renal
# CCRF-CEM leukemia = test system: CCRF-CEM leukemia
# COLO 205 colon = test system: COLO 205 colon
# DU-145 prostate = test system: DU-145 prostate
# EKVX NSCLC = test system: EKVX NSCLC
# HCC-2998 colon = test system: HCC-2998 colon
# HCT-116 colon = test system: HCT-116 colon
# HCT-15 colon = test system: HCT-15 colon
# HL-60(TB) leukemia = test system: HL-60(TB) leukemia
# HOP-62 NSCLC = test system: HOP-62 NSCLC
# HOP-92 NSCLC = test system: HOP-92 NSCLC
# HS 578T breast = test system: HS 578T breast
# HT29 colon = test system: HT29 colon
# IGROV1 ovarian = test system: IGROV1 ovarian
# K-562 leukemia = test system: K-562 leukemia
# KM12 colon = test system: KM12 colon
# LOX IMVI melanoma = test system: LOX IMVI melanoma
# M14 melanoma = test system: M14 melanoma
# MALME-3M melanoma = test system: MALME-3M melanoma
# MCF7 breast = test system: MCF7 breast
# MDA-MB-231 breast = test system: MDA-MB-231 breast
# MDA-MB-435 = test system: MDA-MB-435
# MOLT-4 leukemia = test system: MOLT-4 leukemia
# NCI-H226 lung = test system: NCI-H226 lung
# NCI-H460 lung = test system: NCI-H460 lung
# NCI-H522 lung = test system: NCI-H522 lung
# NCI/ADR-RES ovarian = test system: NCI/ADR-RES ovarian
# OVCAR-3 ovarian = test system: OVCAR-3 ovarian
# OVCAR-4 ovarian = test system: OVCAR-4 ovarian
# OVCAR-5 ovarian = test system: OVCAR-5 ovarian
# OVCAR-8 ovarian = test system: OVCAR-8 ovarian
# PC-3 prostate = test system: PC-3 prostate
# RPMI-8226 leukemia = test system: RPMI-8226 leukemia
# RXF 393 renal = test system: RXF 393 renal
# SF-268 CNS = test system: SF-268 CNS
# SF-295 CNS = test system: SF-295 CNS
# SF-539 CNS = test system: SF-539 CNS
# SK-MEL-2 melanoma = test system: SK-MEL-2 melanoma
# SK-MEL-28 melanoma = test system: SK-MEL-28 melanoma
# SK-MEL-5 melanoma = test system: SK-MEL-5 melanoma
# SK-OV-3 ovarian = test system: SK-OV-3 ovarian
# SN12C renal = test system: SN12C renal
# SNB-19 CNS = test system: SNB-19 CNS
# SNB-75 CNS = test system: SNB-75 CNS
# SW-620 colon = test system: SW-620 colon
# T-47D breast = test system: T-47D breast
# TK-10 renal = test system: TK-10 renal
# U251 CNS = test system: U251 CNS
# UACC-257 melanoma = test system: UACC-257 melanoma
# UACC-62 melanoma = test system: UACC-62 melanoma
# UO-31 renal = test system: UO-31 renal
compound,measurement,setting,value
COc1ccc2c(c1)c(-c1cc(N)n3nc(-c4cn(C)c5ccc(OC)cc45)cc3n1)cn2C,GI50,786-0 renal,1640 nM
same,TGI,786-0 renal,3410 nM
same,GI50,A498 renal,1840 nM
same,TGI,A498 renal,3680 nM
same,GI50,A549 NSCLC,1700 nM
same,TGI,A549 NSCLC,3310 nM
same,GI50,ACHN renal,1790 nM
same,TGI,ACHN renal,3250 nM
same,GI50,BT-549 breast,3230 nM
same,TGI,BT-549 breast,12000 nM
same,GI50,CAKI-1 renal,1790 nM
same,TGI,CAKI-1 renal,3460 nM
same,GI50,CCRF-CEM leukemia,436 nM
same,TGI,CCRF-CEM leukemia,7460 nM
same,GI50,COLO 205 colon,1700 nM
same,TGI,COLO 205 colon,3190 nM
same,GI50,DU-145 prostate,1800 nM
same,TGI,DU-145 prostate,3190 nM
same,GI50,EKVX NSCLC,1840 nM
same,TGI,EKVX NSCLC,3670 nM
same,GI50,HCC-2998 colon,1870 nM
same,TGI,HCC-2998 colon,3320 nM
same,GI50,HCT-116 colon,1500 nM
same,TGI,HCT-116 colon,3100 nM
same,GI50,HCT-15 colon,1150 nM
same,TGI,HCT-15 colon,2780 nM
same,GI50,HL-60(TB) leukemia,1310 nM
same,TGI,HL-60(TB) leukemia,3980 nM
same,GI50,HOP-62 NSCLC,1810 nM
same,TGI,HOP-62 NSCLC,3670 nM
same,GI50,HOP-92 NSCLC,1880 nM
same,TGI,HOP-92 NSCLC,4250 nM
same,GI50,HS 578T breast,2570 nM
same,TGI,HS 578T breast,6670 nM
same,GI50,HT29 colon,1730 nM
same,TGI,HT29 colon,3140 nM
same,GI50,IGROV1 ovarian,2000 nM
same,TGI,IGROV1 ovarian,4140 nM
same,GI50,K-562 leukemia,392 nM
same,TGI,K-562 leukemia,> 100000 nM
same,GI50,KM12 colon,1850 nM
same,TGI,KM12 colon,3510 nM
same,GI50,LOX IMVI melanoma,2040 nM
same,TGI,LOX IMVI melanoma,3640 nM
same,GI50,M14 melanoma,1740 nM
same,TGI,M14 melanoma,3420 nM
same,GI50,MALME-3M melanoma,1870 nM
same,TGI,MALME-3M melanoma,3650 nM
same,GI50,MCF7 breast,1250 nM
same,TGI,MCF7 breast,2740 nM
same,GI50,MDA-MB-231 breast,1840 nM
same,TGI,MDA-MB-231 breast,3490 nM
same,GI50,MDA-MB-435,1910 nM
same,TGI,MDA-MB-435,3740 nM
same,GI50,MOLT-4 leukemia,1950 nM
same,TGI,MOLT-4 leukemia,4880 nM
same,GI50,NCI-H226 lung,2060 nM
same,TGI,NCI-H226 lung,4250 nM
same,GI50,NCI-H460 lung,1790 nM
same,TGI,NCI-H460 lung,3520 nM
same,GI50,NCI-H522 lung,1740 nM
same,TGI,NCI-H522 lung,3410 nM
same,GI50,NCI/ADR-RES ovarian,2070 nM
same,TGI,NCI/ADR-RES ovarian,4520 nM
same,GI50,OVCAR-3 ovarian,1750 nM
same,TGI,OVCAR-3 ovarian,3170 nM
same,GI50,OVCAR-4 ovarian,2040 nM
same,TGI,OVCAR-4 ovarian,4270 nM
same,GI50,OVCAR-5 ovarian,1840 nM
same,TGI,OVCAR-5 ovarian,3580 nM
same,GI50,OVCAR-8 ovarian,1750 nM
same,TGI,OVCAR-8 ovarian,3290 nM
same,GI50,PC-3 prostate,1840 nM
same,TGI,PC-3 prostate,3930 nM
same,GI50,RPMI-8226 leukemia,1780 nM
same,TGI,RPMI-8226 leukemia,6150 nM
same,GI50,RXF 393 renal,1870 nM
same,TGI,RXF 393 renal,3570 nM
same,GI50,SF-268 CNS,2030 nM
same,TGI,SF-268 CNS,4400 nM
same,GI50,SF-295 CNS,1880 nM
same,TGI,SF-295 CNS,3440 nM
same,GI50,SF-539 CNS,1780 nM
same,TGI,SF-539 CNS,3270 nM
same,GI50,SK-MEL-2 melanoma,1830 nM
same,TGI,SK-MEL-2 melanoma,3460 nM
same,GI50,SK-MEL-28 melanoma,1850 nM
same,TGI,SK-MEL-28 melanoma,3460 nM
same,GI50,SK-MEL-5 melanoma,1790 nM
same,TGI,SK-MEL-5 melanoma,3250 nM
same,GI50,SK-OV-3 ovarian,2140 nM
same,TGI,SK-OV-3 ovarian,4310 nM
same,GI50,SN12C renal,2020 nM
same,TGI,SN12C renal,3980 nM
same,GI50,SNB-19 CNS,2500 nM
same,TGI,SNB-19 CNS,6690 nM
same,GI50,SNB-75 CNS,2130 nM
same,TGI,SNB-75 CNS,6270 nM
same,GI50,SW-620 colon,1020 nM
same,TGI,SW-620 colon,2410 nM
same,GI50,T-47D breast,1700 nM
same,TGI,T-47D breast,3500 nM
same,GI50,TK-10 renal,1810 nM
same,TGI,TK-10 renal,3600 nM
same,GI50,U251 CNS,1820 nM
same,TGI,U251 CNS,3490 nM
same,GI50,UACC-257 melanoma,1780 nM
same,TGI,UACC-257 melanoma,3630 nM
same,GI50,UACC-62 melanoma,1960 nM
same,TGI,UACC-62 melanoma,3870 nM
same,GI50,UO-31 renal,1660 nM
same,TGI,UO-31 renal,3190 nM
